Laboratory results from patent US20260274922A1, “SYNTHETIC ESTROGEN RECEPTOR (ER)-DERIVED PEPTIDE” (THE TEXAS A&M UNIVERSITY SYSTEM, priority 2023, published 2026).
Where no end group is shown, it is not given here. The star is where a group is joined. FITC = O=C1OC2(c3ccc(O)cc3Oc3cc(O)ccc32)c2ccc(NC(=S)*)cc21

How the values were obtained:
[1] = tested on: primary mouse hepatocytes; assay: Hepatic glucose production (HGP) in primary hepatocytes upon glucagon treatment; assay type: cell-based; settings: WT primary hepatocytes
Method: Hepatic glucose production. The primary mouse hepatocytes were isolated from 8-12-week-old male mice. Cells were resuspended in DMEM medium (2% FBS and 1% penicillin-streptomycin) for 3 h and cultured in HGP buffer (118 mM NaCl, 2.5 mM CaCl2, 4.8 mM KCl, 25 mM NaHCO3, 1.1 mM KH2PO4, 1.2 mM MgSO4, […], 0.6% BSA, 10 mM HEPES, 10 mM sodium DL-lactate, and 5 mM pyruvate, pH 7.4). Then cells were pretreated with 50 nM glucagon for 30 min, followed by 10 nM insulin treatment for 3 h, and glucose level in the medium was measured using Amplex Red Glucose Assay. The results were normalized by cell protein abundance.

db/db mice = assay type: in vivo, mouse
Method: Obese mouse models and AF1 peptide treatment. For the high-fat diet (HFD)-induced obese mouse model, the 6-8-week-old male mice were fed with HFD (HFD; 60% kcal from fat, D12492; Research diet, New Brunswick, NJ) for 11 weeks. Then mice received 5 mg/kg body weight control or AF1 peptide through retro orbital injection (twice per week; 5 weeks). For genetic obesity mouse model, the 8-week-old db/db mice were administered with 5 mg/kg body weight control or AF1 peptide through retro orbital injection (twice per week; 5 weeks). Glucose tolerance and insulin tolerance tests were performed in the fourth and fifth week after treatment, respectively. Body composition was measured using EchoMRI™ one day before sacrificing the mice.
(§1) Glucose and insulin tolerance tests. For glucose tolerance tests, mice were fasted for 16 h and intraperitoneally (i.p.) injected with dextrose (1 g/kg body weight for mice fed with regular diet; 0.5 g/kg body weight for db/db mice or mice fed with HFD). For insulin tolerance tests, mice were fasted for 6 h and i.p. injected with insulin solution (1 U/kg body weight for male mice; 0.75 U/kg body weight for female mice). Blood glucose levels were measured using glucometer at indicated time points.
Hematoxylin and eosin staining and Oil Red O staining. Livers were embedded into paraffin after being fixed by PFA, and then cut into 5 μm sections. After deparaffinization and hydration, liver sections were stained with hematoxylin for 5 min. After differentiation by 1% acid alcohol, liver sections were stained with 1% eosin for 3 min. Finally, liver sections were dehydrated and mounted with mounting media. For Oil Red O staining, liver frozen sections were prepared and fixed in 10% neutral buffered formalin for 10 min after air dry for 1 h. Liver sections were stained in Oil Red O working solution for 15 min after a quick dip in 60% isopropanol. Liver sections were then stained with hematoxylin for 3 min and covered with aqueous mounting gel. Liver sections were observed using slide scanner (Leica).
(§2) Co-immunoprecipitation and Western blotting analysis. […] Protein bands were detected using a ChemiDoc image system.
Serum lipid profile analysis. Serum triglyceride, AST, ALT, cholesterol, LDL, HDL, NEFA, and ALP were measured using DxC 700 AU Chemistry Analyzer (Beckman Coulter).
Serum insulin and liver triglyceride analysis. Serum insulin and triglyceride levels were measured by using mouse insulin ELISA kit (Mercodia) and triglyceride assay kit (Abcam), respectively. […]

DKO male mice = assay: AF1 peptide treatment of liver-specific IRS1 and IRS2 knockout (DKO) mice; assay type: in vivo, mouse
Method: Animal studies. All animal experiments were performed following procedures approved by the Texas A&M University Institutional Animal Care and Use Committee. Mice are housed at 22-24° C. and maintained on a 12 h light/12 h dark cycle with a standard chow diet (58% calories from carbohydrate, 18% from fat, and 24% from protein, 3.1 kcal/g, with a reduced phytoestrogen content; Teklad Diet) ad libitum. Liver-specific ERα (ERα^LivKO) or ERβ (ERβ^LivKO) knockout mice were generated by crossing ERα or ERβ flox mice (gift from Dr. Yong Xu, Baylor College of Medicine) with Albumin-Cre mice purchased from The Jackson Laboratory (Strain #003574), respectively. Liver IRS1 and IRS2 double knockout (DKO) mice were generated by breeding IRS1 and IRS2 flox (IRS1^L/L::IRS2^L/L) mice with Albumin-Cre mice. Liver IRS1, IRS2, and ERα triple knockout (TKO) mice were generated by crossing DKO mice with ERα^LivKO mice. All mice were on C57B/6J background. Db/db mice were purchased from The Jackson Laboratory (Strain #000697). Female mice at age of 2-month-old underwent a bilateral ovariectomy (OVX) surgery; these mice were used to perform experiments 4 weeks after OVX surgery. All the mice experiments were performed with age- and gender-matched mice with their health status examined daily by the investigators and technicians from Texas A&M University LARR Animal Facility. Littermate controls were used if possible.
as §1, §2

[2] = db/db mice, 5 mg/kg twice per week, 5 weeks
[3] = db/db mice, 5 mg/kg twice per week, 5 weeks, vs CNTR

Q: For “YGRKKRRQRRRTKASGMALLHEPLNRPQLKIPLERDSSKPAVYNY ({FITC}-YGRKKRRQRRRTKASGMALLHEPLNRPQLKIPLERDSSKPAVYNY) [AF1 peptide]”, which “glucagon-induced hepatic glucose production (HGP)” value [1] is on record?
A: did not impair

Q: What about the “enhancement of insulin-mediated suppression of HGP” value ([1]; under glucagon challenge) of the same sequence?
A: 22%

Q: And the liver triglycerides (db/db mice; db/db mice)?
A: decreasing trend

Q: And the “serum HDL” value (db/db mice; db/db mice)?
A: significantly reduced

Q: What about the “serum LDL” value (db/db mice; db/db mice) of the same sequence?
A: significantly reduced

Q: What about the “serum NEFA” value (db/db mice; db/db mice) of the same sequence?
A: significantly reduced

Q: And the serum cholesterol (db/db mice; db/db mice)?
A: significantly reduced

Q: What about the serum insulin (db/db mice; db/db mice) of the same sequence?
A: limited effect

Q: What about the serum triglycerides (db/db mice; db/db mice) of the same sequence?
A: decreasing trend

Q: What about the “overnight fasting blood glucose” value (db/db mice; [2]) of the same sequence?
A: 103.8 ± 3.6 mg/dL

Q: And the “random feeding blood glucose” value (db/db mice; [2])?
A: 360.7 ± 25.1 mg/dL

Q: And the “decrease in overnight fasting blood glucose” value (db/db mice; [3])?
A: 35%

Q: What about the “reduction in random feeding blood glucose” value (db/db mice; [3]) of the same sequence?
A: 22%

Q: What about the “liver steatosis (steatosis structure and liver fat amount)” value (db/db mice; db/db mice, H&E and Oil Red O staining) of the same sequence?
A: significantly decreased

Q: What about the “blood glucose upon glucose or insulin challenge” value (db/db mice; db/db mice, glucose and insulin tolerance tests) of the same sequence?
A: significantly decreased

Q: And the “decrease in pIRS1-S302” value (db/db mice; db/db mice, liver)?
A: 61%

Q: What about the “increase in IRS1” value (db/db mice; db/db mice, liver) of the same sequence?
A: 114%

Q: What about the “increase in pAKT-S473” value (db/db mice; db/db mice, liver) of the same sequence?
A: 98%

Q: And the “increase in pAKT-T308” value (db/db mice; db/db mice, liver)?
A: 101%

Q: And the “pAKT-S473 and pAKT-T308” value (db/db mice; db/db mice, skeletal muscle and epididymal fat tissues)?
A: significantly increased

Q: And the “serum ALP” value (db/db mice; mouse, in vivo)?
A: limited effect

Q: And the “serum ALT” value (db/db mice; mouse, in vivo)?
A: limited effect

Q: And the “serum AST” value (db/db mice; mouse, in vivo)?
A: significantly reduced

Q: What about the glucose homeostasis (DKO male mice; glucose tolerance test) of the same sequence?
A: significantly improved

Q: What about the insulin sensitivity (DKO male mice; insulin tolerance test) of the same sequence?
A: significantly improved

Q: And the “insulin-induced AKT phosphorylation in the liver” value (DKO male mice; liver)?
A: could not be rescued

Q: And the “insulin-stimulated AKT phosphorylation in skeletal muscle and eWAT” value (DKO male mice; skeletal muscle and epididymal white adipose tissue)?
A: partially improved
